Laboratory results from patent US10711041B2, “Lyophilisate containing a cyclic peptide of formula X1-[sequence]-X2” (priority 2013, dated 2020).
Bridges are numbered along the chain shown (N, C = ends). Where no end group is shown, it is not given here.

Test system: donor lung of a pig
Experiment: Ex vivo lung perfusion (EVLP) of pig donor lungs simulating lung transplantation
Experimental: Brain-dead pigs were brought into back position and a vertical sternotomy was carried out. The pericardium and both pleural cavities were opened. The lower and upper cavial venes were embraced. An inflow catheter was inserted into the lung artery by means of a purse-string suture in the right ventricular discharging tract. An inflow occlusion was obtained by connecting the lower and upper cavial venes, discharge occlusion by stapling off the aorta. The lungs then were protected by a prophylactic rinsing with cold, isotonic conservation solution (50 ml per kg body weight of the pig, comprising potassium ions, sodium ions, magnesium ions, calcium ions, chloride ions, dextran, glucose, buffer ions) through the inflow catheter. Incision of the left heart tube yields discharge. The lungs were aerated during that time period with 50% oxygen and ice sludge was given into both pleural cavities and into the mediastinum.
The explanation technique in sum was the removal with heart and esophagus according to the following steps: • a) Dissection of the soft tissue bridges to the thoracic cavity at both sides of the trachea. • b) Transsection of both pulmonal ligaments (very deep, difficult exposure), then of VCI, of the low thoracic aorta ascendens, or the esophagus, respectively. • c) Blunt-separation of residual mediastinal adhesions. • d) Entire distension of the donor lung before the tracheal closure with a clip.
After explantation the lungs were winded into gauze, put into an ice bag, filled with low-potassium-dextran-extracellular solution and stored at 4° C. for 18 to 24 hours.
For the ex-vivo lung conditioning the EVLP-technique was used ([…]). […] During the EVLP the lung function may be assessed regularly regarding key indicators. […]
The processing of the donor lung from the pig was started with sewing on a funnel-shaped tube from Silastic with a pressure-monitored catheter, implemented into the left atrial cuff (LA), for openly splinting the LA and for maintaining a closed perfusion circulation. […]

[1] = inhalation 1 mg/kg, vs Water for Injection

Row | Molecule | effects regarding the lung | arterio-venous pO2 difference ΔpO2 [1] | dynamic lung conformity (compliance) [1]
1 | Cyclo(CGQREAPAGAAAKPWYC) (disulfide 1-17) [SEQ ID NO: 7, reference compound] | no improving effects | – | –
2 | C[C@@H]1NC(=O)CNC(=O)[C@H](CCC(=O)O)NC(=O)[C@@H]2CCCN2C(=O)[C@H]([C@@H](C)O)NC(=O)[C@H](CCC(=O)O)NC(=O)[C@H](CCCNC(=N)N)NC(=O)[C@H](CCC(N)=O)NC(=O)CNC(=O)[C@@H](N)CSSC[C@@H](C(=O)O)NC(=O)[C@H](Cc2ccc(O)cc2)NC(=O)[C@H](Cc2c[nH]c3ccccc23)NC(=O)[C@@H]2CCCN2C(=O)[C@H](CCCCN)NC(=O)[C@H](C)NC(=O)[C@H](CCC(=O)O)NC1=O [SEQ ID NO: 1] | – | improved | improved
